Columns and labels:
Assay type in all cases: cell-based
F508del-CFTR = molecular target: T1, F508del-CFTR (Homo sapiens, UniProt P13569, DEL508-508); assay: Dose response, potentiation of forskolin-activated F508del-CFTR chloride channel activity in CFBE41o- cells (fluorescence membrane potential assay); conditions: low temperature (27 degrees Celsius) correction, read-out: potency in potentiating cyclic AMP dependent F508del-CFTR chloride channel activity
T1 construct: F508del-CFTR was endogenously expressed in CFBE41o^− cells; endogenous in cells; host or cells: CFBE41o-
Procedure: In these studies, F508del-CFTR was endogenously expressed in CFBE41o^− cells and it's trafficking defect corrected by low temperature (27 degrees Celsius) incubation. The fold increase in cyclic AMP dependent F508del-CFTR mediated chloride channel activity induced by potentiator treatment was determined using the fluorescence-based, membrane potential difference assay previously described.

[1] = test system: primary differentiated human bronchial epithelial cultures; assay: Bead tracking assay of mucociliary movement, primary bronchial epithelial cultures exposed to cigarette smoke extract
Procedure: Compound 11 was tested in an in-vitro model of COPD. In this model, primary differentiated human bronchial epithelial cultures were exposed to cigarette smoke extract (4,5). Exposure to cigarette smoke extract (CSE) led to mucostasis and slowed mucociliary movement (FIG. 1(A) and (B)). […] Changes in mucociliary movement were determined as in our previous publication (7), i.e., by tracking the speed of fluorescent beads added to the surface of the airway cultures. The relative rescue effect of Compound 11 compared favourably relative to the competitor, the FDA approved CFTR potentiator marketed as Ivacaftor (VX-770).
Mature bronchial epithelial cultures, seeded on 24-well transwell inserts, derived from non-smoker donors of variable ages were received from the University of Iowa and cultured at air-liquid interface (ALI) using UltraG medium. A total of 6 inserts per donor were cultured, and all inserts from a single donor were selected to receive chronic drug and toxin treatment. Ahead of chronic treatment, cultures were subject to mucomist to reduce the volume and viscosity of the mucous layer ahead of imaging. Cultures were first washed twice with 200 uL HBSS (Wisent) applied apically to the transwell, each wash for 10 minutes at 37 degrees and 5% CO2. Cells were then incubated with 10 μM N-acetyl-cysteine (source?) dissolved in HBSS (Wisent) for 30 minutes, followed by a final HBSS wash as described previously. The toxin treatment consisted of either cigarette smoke extract (CSE) prepared in 100% DMSO (University of Alabama at Birmingham), dissolved at a concentration of 2% (v/v) in UltraG medium, with an equivalent concentration of DMSO alone serving as a control. The chronic drug treatment was co-applied with the toxin treatment, which included either VX-770 (Vertex) or SK-POT, aka Compound 11 (both prepared in 100% DMSO) dissolved in UltraG medium at a final concentration of 1 μm. There were a total of 6 chronic treatments, with each of the 6 inserts per donor receiving a different chronic treatment. Bronchial epithelia were incubated with the chronic treatment, applied apically, for 24 hours at 37 degrees C. and 5% CO2. After 24 hours, green fluorescent microspheres (brand?) dissolved in HBSS at a concentration of 0.05% (v/v) were applied apically; cultures were incubated with the microspheres for 45 minutes. The toxin and potentiator treatments were carried forth into the microsphere solution.
Inserts were then imaged at room temperature by epifluorescence microscopy (Zeiss or Olympus). The basic replicate of the assay consists of a 5-second video captured in the green channel and 40-60 frames per second; Z-position was adjusted ahead of each video to ensure beads in the airway surface liquid stratum immediately above the cilia were being captured. 5 videos were captured per insert/conditions, representing the centre and 4 corners of the insert. 2 sets of 5 videos were captured per insert/condition: one at baseline, and one 20 minutes following CFTR stimulation by forskolin at a concentration of 10 μM. Inserts were incubated at room temperature after forskolin addition.
Videos were captured using Volocity software and exported as one TIF file per frame. Frames were then re-compiled into complete videos using Arivis 4D software. Using an algorithm as previously described in Wu et al. 2017, microspheres were highlighted by adjusting two parameters: fluorescence intensity and diameter. […]

Wt-CFTR = Wt-CFTR (Homo sapiens, UniProt P13569); assay: Calu-3 CSE experiments, FLiPR assay of CFTR channel activity; set-up: this airway epithelial cell line endogenously expresses this channel; endogenous in cells; host or cells: Calu-3
Procedure: Addition of CFTR-inhibitor indicated with grey arrow. Superimposed, we show the effect of acute co-application of VX-770 (open squares) or SK-POT (open triangles) with forskolin. […] Only SK-POT rescued CFTR channel function in the presence of cigarette smoke extract.
Calu-3 cells were cultured using EMEM (Wisent) supplemented with FBS at 20% (v/v) and 1× Penicillin/Streptomycin (Wisent). Calu-3 cells were seeded on clear-bottom, black-walled 96 well plates (Costar, Corning) at a density of 10,000 cells/well and cultured for 2 days post-confluence. Cells then received the chronic treatment of toxin and potentiator. The toxin treatment consisted of either cigarette smoke extract (CSE) prepared in 100% DMSO (University of Alabama at Birmingham), dissolved at a concentration of 2% (v/v) in Calu-3 medium, with an equivalent concentration of DMSO alone serving as the toxin control. The chronic drug treatment was co-applied with the toxin, which included either VX-770 or Compound 11 (both prepared in 100% DMSO) dissolved in Calu-3 medium at a final concentration of 1 μm. VX-770 (Vertex) and Compound 11 solutions were prepared from 1 mM stocks. The control for the drug treatment was the vehicle, DMSO at an equivalent volume. Combining the two toxin treatments and three drug treatments, a total of six treatments were applied chronically to 4 wells per condition, for a total of 24 wells receiving chronic treatment.
Cells were cultured for an additional 24 hours after chronic treatment application, after which cells were incubated with FLiPR assay buffer. The FLiPR assay buffer consisted of blue FLiPR dye (Molecular Devices) dissolved at a concentration of 0.5 mg/mL in chloride-free buffer (150 mM NMDG, 150 mM gluconolactone, 3 mM potassium gluconate, 300 mOsm and pH 7.38). Buffer was incubated with cells at 37 degrees and 5% CO2 for 35 minutes. CFTR function was assessed by measuring changes in fluorescence activity after acute CFTR channel activation by addition of cAMP agonist forskolin dissolved in chloride-free buffer to a final concentration 1 μm, using the SpectraMax i3x multimodal plate reader. Fluorescence readings (excitation 530 nm; emission 560 nm) for each well were taken at 30-second intervals for 5 minutes (baseline) or 10 minutes (activation). CFTR activity was then terminated by addition of CFTR-inhibitor 172 dissolved in chloride-free buffer to a concentration of 10 μm, to further verify the specificity of the response to CFTR activity. Fluorescence changes were recorded at 30-second intervals for another 10 minutes. In analysis, all fluorescence values were normalized per well to the final reading prior to the addition of forskolin and expressed as a percentage of this reading.

wild-type human CFTR = molecular target: T2, wild-type human CFTR (Homo sapiens, UniProt P13569); assay: Cell-attached patch clamp of CFTR channel potentiation in HEK-293 cells; conditions: one active channel with forskolin alone
T2 construct: host or cells: HEK-293
T2 sequence (P13569 whole entry): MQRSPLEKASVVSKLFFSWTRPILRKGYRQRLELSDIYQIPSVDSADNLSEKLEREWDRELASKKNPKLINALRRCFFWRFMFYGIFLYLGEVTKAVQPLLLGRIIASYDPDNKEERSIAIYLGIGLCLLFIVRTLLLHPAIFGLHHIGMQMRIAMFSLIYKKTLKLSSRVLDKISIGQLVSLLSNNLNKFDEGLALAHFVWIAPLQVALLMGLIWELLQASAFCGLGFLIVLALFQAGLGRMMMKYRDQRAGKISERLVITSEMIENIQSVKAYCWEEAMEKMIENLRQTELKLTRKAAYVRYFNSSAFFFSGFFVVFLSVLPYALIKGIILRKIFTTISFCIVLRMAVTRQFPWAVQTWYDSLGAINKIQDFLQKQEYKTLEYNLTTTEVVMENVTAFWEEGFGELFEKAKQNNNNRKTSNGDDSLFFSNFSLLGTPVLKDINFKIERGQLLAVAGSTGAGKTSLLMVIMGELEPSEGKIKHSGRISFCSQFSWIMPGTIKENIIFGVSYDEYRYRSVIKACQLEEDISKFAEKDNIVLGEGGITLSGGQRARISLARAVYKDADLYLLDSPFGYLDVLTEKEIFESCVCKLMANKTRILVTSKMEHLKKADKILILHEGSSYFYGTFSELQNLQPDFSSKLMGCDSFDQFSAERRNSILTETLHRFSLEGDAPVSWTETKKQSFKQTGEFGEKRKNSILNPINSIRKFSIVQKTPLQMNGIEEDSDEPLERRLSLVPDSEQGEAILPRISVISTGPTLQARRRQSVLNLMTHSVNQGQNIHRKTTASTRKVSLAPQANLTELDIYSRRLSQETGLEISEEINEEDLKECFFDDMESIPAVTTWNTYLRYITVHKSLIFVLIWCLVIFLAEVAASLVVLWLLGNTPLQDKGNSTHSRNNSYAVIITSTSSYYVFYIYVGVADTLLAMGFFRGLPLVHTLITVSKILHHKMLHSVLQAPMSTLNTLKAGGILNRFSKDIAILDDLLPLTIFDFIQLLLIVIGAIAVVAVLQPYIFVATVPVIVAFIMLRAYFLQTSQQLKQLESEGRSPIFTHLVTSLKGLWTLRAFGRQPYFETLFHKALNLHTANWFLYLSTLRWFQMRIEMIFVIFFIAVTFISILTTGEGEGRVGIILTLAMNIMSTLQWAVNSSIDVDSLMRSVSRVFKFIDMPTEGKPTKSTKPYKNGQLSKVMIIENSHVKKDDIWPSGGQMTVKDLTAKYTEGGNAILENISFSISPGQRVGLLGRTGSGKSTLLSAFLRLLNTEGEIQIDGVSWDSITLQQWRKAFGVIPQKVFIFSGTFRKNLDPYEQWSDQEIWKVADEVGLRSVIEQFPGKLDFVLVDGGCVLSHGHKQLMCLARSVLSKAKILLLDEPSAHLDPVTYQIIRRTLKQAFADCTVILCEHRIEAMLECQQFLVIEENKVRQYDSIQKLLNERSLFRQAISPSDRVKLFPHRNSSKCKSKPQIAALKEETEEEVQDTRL
Procedure: HEK-293 cells stably expressing wild-type human CFTR in patch clamp studies of single channel activity were used. […] CFTR Cl^− channels were recorded in cell-attached membrane patches using an Axopatch 200A patch clamp amplifier and pCLAMP software (both from Molecular Devices, Sunnyvale, CA). The pipette and bath (extracellular) solutions contained 140 mm N-methyl-d-glucamine, 140 mm aspartic acid, 5 mm CaCl2, 2 mm MgSO4, and 10 mm TES, adjusted to pH 7.3 with Tris ([Cl^−]: 10 mM). The bath was maintained at room temperature.
In order to activate Wt-CFTR channels, 10 uM forskolin was added to the bath. […] To determine channel number, we used the maximum number of simultaneous channel openings observed during the experimental procedure. Single channel recordings were filtered and digitized data as described previously. To measure single-channel current amplitude, Gaussian distributions were fitted to current amplitude histograms. To measure Po, lists of open and closed times were created using a half-amplitude crossing criterion for event detection, and dwell time histograms were constructed and fitted. For the purpose of illustration, single-channel records were filtered at 500 Hz.

Chain of Wt-CFTR (P13569 whole entry): as above
T1 sequence (P13569 with tags, fused parts or gaps DEL508-508): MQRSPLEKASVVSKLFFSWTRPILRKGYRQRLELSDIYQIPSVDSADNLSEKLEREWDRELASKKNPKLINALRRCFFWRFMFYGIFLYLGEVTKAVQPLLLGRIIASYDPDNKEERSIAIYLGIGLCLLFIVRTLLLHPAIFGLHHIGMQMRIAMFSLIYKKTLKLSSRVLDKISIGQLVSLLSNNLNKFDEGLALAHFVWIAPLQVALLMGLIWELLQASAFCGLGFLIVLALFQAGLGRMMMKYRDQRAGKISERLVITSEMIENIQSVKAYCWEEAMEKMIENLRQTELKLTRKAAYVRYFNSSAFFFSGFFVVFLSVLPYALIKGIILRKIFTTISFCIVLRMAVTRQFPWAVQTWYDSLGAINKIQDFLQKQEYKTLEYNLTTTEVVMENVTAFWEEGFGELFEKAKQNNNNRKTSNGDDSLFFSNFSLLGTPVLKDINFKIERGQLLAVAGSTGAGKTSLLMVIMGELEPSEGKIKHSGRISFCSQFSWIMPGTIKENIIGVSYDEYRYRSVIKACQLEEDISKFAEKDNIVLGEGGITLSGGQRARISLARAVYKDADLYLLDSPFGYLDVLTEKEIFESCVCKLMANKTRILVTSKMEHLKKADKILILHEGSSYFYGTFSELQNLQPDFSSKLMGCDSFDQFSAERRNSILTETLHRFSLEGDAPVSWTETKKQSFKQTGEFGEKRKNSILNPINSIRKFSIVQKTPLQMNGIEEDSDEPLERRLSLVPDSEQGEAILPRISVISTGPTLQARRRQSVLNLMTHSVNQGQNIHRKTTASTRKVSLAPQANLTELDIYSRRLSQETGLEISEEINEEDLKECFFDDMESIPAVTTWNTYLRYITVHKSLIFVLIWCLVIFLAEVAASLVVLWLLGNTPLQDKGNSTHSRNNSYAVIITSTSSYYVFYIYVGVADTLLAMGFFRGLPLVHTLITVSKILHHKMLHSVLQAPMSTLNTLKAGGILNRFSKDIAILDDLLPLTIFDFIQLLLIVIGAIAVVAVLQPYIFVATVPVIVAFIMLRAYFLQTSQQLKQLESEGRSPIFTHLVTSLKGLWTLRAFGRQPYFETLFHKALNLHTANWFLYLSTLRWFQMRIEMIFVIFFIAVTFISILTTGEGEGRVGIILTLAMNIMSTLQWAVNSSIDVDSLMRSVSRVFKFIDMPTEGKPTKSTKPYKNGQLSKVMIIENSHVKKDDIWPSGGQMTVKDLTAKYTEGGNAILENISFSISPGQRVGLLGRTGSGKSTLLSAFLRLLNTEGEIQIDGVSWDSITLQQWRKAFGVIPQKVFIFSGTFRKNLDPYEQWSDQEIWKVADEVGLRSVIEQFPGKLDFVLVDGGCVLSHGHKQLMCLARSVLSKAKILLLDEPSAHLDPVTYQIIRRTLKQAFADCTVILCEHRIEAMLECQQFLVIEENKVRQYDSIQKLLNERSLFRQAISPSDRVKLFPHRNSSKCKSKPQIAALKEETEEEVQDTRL

Compound: CC(C)(C)c1cc(C(C)(C)C)c(NC(=O)c2c[nH]c3ccccc3c2=O)cc1O [VX-770, reference compound]
- EC50 (F508del-CFTR): 32 nM
- mucostasis / bead velocity in CSE-treated cultures ([1]; CSE 2%, compound 1 μM for 24 hours, forskolin 10 μM): a significant increase in the forskolin induced response in CSE-treated cultures after VX-770 addition was not observed
- bead velocity under control conditions ([1]; no CSE, compound added with vehicle for 24 hours): Neither VX-770 nor Compound 11 had any impact on bead velocity
- forskolin-activated CFTR channel activity after CSE exposure (Wt-CFTR; Calu-3, CSE 2%, compounds 1 uM): only (SK-POT) treatment led to a significant increase
- EC90 (Wt-CFTR; Calu-3, CFTR channel potentiation, read-out: approximate EC90): ~1000 nM

Compound: CFTRinh-172
- number of active channels (wild-type human CFTR): significant decrease in the number of active channels

Reference: US20260055065A1, “PYRIDAZINONE COMPOUNDS WHICH MODULATE MUTANT PROTEINS FOR TREATING RESPIRATORY DISEASES” (The Hospital for Sick Children, priority 2022, published 2026)
